Measurements reported in US5130307A, “Aminoesters of rapamycin” (American Home Products Corporation, priority 1991, dated 1992).
Values after ≈ are worked out from the molar mass of the structure shown.

Columns and labels:
Candida albicans 3669 = test: antifungal plate test, MIC; format: cell-based
Protocol: (§1) The following represents the typical procedure used. Compound to be tested was placed on sterile dried 1/4" plate disks, and allowed to dry. Agar plates were seeded with fungi and allowed to solidify. The impregnated disks were placed on the seeded Agar surface and incubated for the time required for the particular culture. Results are expressed in MIC (μg/ml) to inhibit growth.

[1] = system: Candida albicans ATCC 10231; test: antifungal plate test, MIC; format: cell-based; details: ATCC10231
Protocol: as §1

[2] = system: Candida albicans ATCC 38247; test: antifungal plate test, MIC; format: cell-based; details: ATCC38247
Protocol: as §1

[3] = system: Candida albicans ATCC 38246; test: antifungal plate test, MIC; format: cell-based; details: ATCC38246
Protocol: as §1

[4] = system: Candida albicans ATCC 38248; test: antifungal plate test, MIC; format: cell-based; details: ATCC38248
Protocol: as §1

[5] = system: pinch skin graft from male DBA/2 donors transplanted to male BALB/c recipients; test: survival time of pinch skin graft; format: in vivo; details: intraperitoneally; mean ± SD
Protocol: Immunosuppressive activity was evaluated in an in vitro standard pharmacological test procedure to measure lymphocyte proliferation (LAF) and in two in vivo standard pharmacological test procedures. The first in vivo procedure was a popliteal lymph node (PLN) test procedure which measured the effect of compounds of this invention on a mixed lymphocyte reaction and the second in vivo procedure evaluated the survival time of a pinch skin graft.
The second in vivo test procedure is designed to determine the survival time of pinch skin graft from male DBA/2 donors transplanted to male BALB/c recipients. The method is adapted from Billingham R.E. and Medawar P.B., J. Exp. Biol. 28:385-402, (1951). Briefly, a pinch skin graft from the donor is grafted on the dorsum of the recipient as a homograft, and an autograft is used as control in the same region. […] Untreated recipients serve as rejection control. The graft is monitored daily and observations are recorded until the graft becomes dry and forms a blackened scab. This is considered as the rejection day. The mean graft survival time (number of days ±S.D.) of the drug treatment group is compared with the control group.

| Structure (SMILES) | MIC (Candida albicans 3669) [µg/mL] | MIC [1] [µg/mL] | MIC [2] [µg/mL] | MIC [3] [µg/mL] | MIC [4] [µg/mL] | Skin Graft (days + SD), mean graft survival time [5] [days] |
| --- | --- | --- | --- | --- | --- | --- |
| CO[C@H]1C[C@@H]2CC[C@@H](C)[C@@](O)(O2)C(=O)C(=O)N2CCCC[C@H]2C(=O)O[C@H]([C@H](C)C[C@@H]2CC[C@@H](OC(=O)CN(C)C(=O)OC(C)(C)C)[C@H](OC)C2)CC(=O)[C@H](C)/C=C(\C)[C@@H](OC(=O)CN(C)C(=O)OC(C)(C)C)[C@@H](OC)C(=O)[C@H](C)C[C@H](C)/C=C/C=C/C=C/1C [Example 3, Rapamycin-31,42-diester with N-[(1,1-dimethylethoxy)carbonyl]-N-methylglycine] | 0.4 (≈ 0.318 µM) | 0.4 (≈ 0.318 µM) | > 0.4 | > 0.4 | > 0.4 | 9.0 ± 0.9 |
| CO[C@H]1C[C@@H]2CC[C@@H](C)[C@@](O)(O2)C(=O)C(=O)N2CCCC[C@H]2C(=O)O[C@H]([C@H](C)C[C@@H]2CC[C@@H](OC(=O)[C@H](CC(=O)OCc3ccccc3)NC(=O)OC(C)(C)C)[C@H](OC)C2)CC(=O)[C@H](C)/C=C(\C)[C@@H](OC(=O)[C@H](CC(=O)OCc2ccccc2)NC(=O)OC(C)(C)C)[C@@H](OC)C(=O)[C@H](C)C[C@H](C)/C=C/C=C/C=C/1C [Example 7, Rapamycin-31,42-diester with 2-[[(1,1-dimethylethoxy)carbonyl]amino]-4-oxo-4-(phenylmethoxy) butanoic acid] | – | – | – | – | – | 7.7 ± 1.5 |
| CO[C@H]1C[C@@H]2CC[C@@H](C)[C@@](O)(O2)C(=O)C(=O)N2CCCC[C@H]2C(=O)O[C@H]([C@H](C)C[C@@H]2CC[C@@H](OC(=O)C[C@H](NC(=O)OC(C)(C)C)C(=O)OCc3ccccc3)[C@H](OC)C2)CC(=O)[C@H](C)/C=C(\C)[C@@H](OC(=O)C[C@H](NC(=O)OC(C)(C)C)C(=O)OCc2ccccc2)[C@@H](OC)C(=O)[C@H](C)C[C@H](C)/C=C/C=C/C=C/1C [Example 8, Rapamycin-31,42-diester with 3-[[(1,1-dimethylethoxy)carbonyl]amino]-4-oxo-4-(phenylmethoxy) butanoic acid] | > 0.4 | > 0.4 | > 0.4 | > 0.4 | > 0.4 | – |

Second part, led by results:

| MIC (Candida albicans 3669) [µg/mL] | MIC [1] [µg/mL] | MIC [2] [µg/mL] | MIC [3] [µg/mL] | MIC [4] [µg/mL] | Structure (SMILES) | Skin Graft (days + SD), mean graft survival time [5] [days] |
| --- | --- | --- | --- | --- | --- | --- |
| > 0.4 | > 0.4 | > 0.4 | > 0.4 | > 0.4 | CO[C@H]1C[C@@H]2CC[C@@H](C)[C@@](O)(O2)C(=O)C(=O)N2CCCC[C@H]2C(=O)O[C@H]([C@H](C)C[C@@H]2CC[C@@H](OC(=O)CNC(=O)CNC(=O)OC(C)(C)C)[C@H](OC)C2)CC(=O)[C@H](C)/C=C(\C)[C@@H](O)[C@@H](OC)C(=O)[C@H](C)C[C@H](C)/C=C/C=C/C=C/1C [Example 1, Rapamycin-42-ester with N-[(1,1-dimethylethoxy)carbonyl]-glycylglycine] | 12.0 ± 1.6 |
| 0.1 (≈ 0.0745 µM) | 0.1 (≈ 0.0745 µM) | 0.2 (≈ 0.149 µM) | 0.2 (≈ 0.149 µM) | 0.2 (≈ 0.149 µM) | CO[C@H]1C[C@@H]2CC[C@@H](C)[C@@](O)(O2)C(=O)C(=O)N2CCCC[C@H]2C(=O)O[C@H]([C@H](C)C[C@@H]2CC[C@@H](OC(=O)CNC(=O)CNC(=O)OC(C)(C)C)[C@H](OC)C2)CC(=O)[C@H](C)/C=C(\C)[C@@H](OC(=O)CNC(=O)CNC(=O)OC(C)(C)C)[C@@H](OC)C(=O)[C@H](C)C[C@H](C)/C=C/C=C/C=C/1C [Example 2, Rapamycin-31,42-diester with N-[(1,1-dimethylethoxy)carbonyl]-glycylglycine] | 11.5 ± 0.6 |
| 0.2 (≈ 0.184 µM) | 0.1 (≈ 0.0921 µM) | 0.1 (≈ 0.0921 µM) | 0.4 (≈ 0.369 µM) | 0.1 (≈ 0.0921 µM) | CO[C@H]1C[C@@H]2CC[C@@H](C)[C@@](O)(O2)C(=O)C(=O)N2CCCC[C@H]2C(=O)O[C@H]([C@H](C)C[C@@H]2CC[C@@H](OC(=O)CN(C)C(=O)OC(C)(C)C)[C@H](OC)C2)CC(=O)[C@H](C)/C=C(\C)[C@@H](O)[C@@H](OC)C(=O)[C@H](C)C[C@H](C)/C=C/C=C/C=C/1C [Example 4, Rapamycin-42-ester with N-[(1,1-dimethylethoxy)carbonyl]-N-methylglycine] | 12.3 ± 0.5 |
